Test results published in the OligoGym collection.
“And” between values parts separate entries of the source, which are not always exact repeats. Identical values can stand only once. After the bases stand the sugars from the 5' end (letter, count) and the backbone: PS all phosphorothioate, else s phosphorothioate and o phosphodiester by linkage. Methylation of C is not given here. e = 2'-O-(2-methoxyethyl) (MOE); k = constrained ethyl (cEt); d = 2'-deoxy (DNA)

Molecular target: IRF4
Conditions: ASO, MM.1R, 0.0625 µM

Compared with CGCATTGCTAGATTCT (sugars k3 d10 k3, PS), CGCAAGTCTACAGCCC (sugars k3 d10 k3, PS) is higher in target mRNA inhibition: -9% for the first, 0% for the second.

Same assay, conditions: ASO, MM.1R, 0.074 µM

Compared with “CTATAGTGTTCCAGGA (sugars kkdddddddddkdkdk, PS)”, “AGTTGTAAATGAGTCG (sugars kkkddddddddkekek, PS)” is lower in target mRNA inhibition: 19% for the first, 18% for the second.

With CGCAAGTCTACAGCCC (sugars k3 d10 k3, PS) the target mRNA inhibition was -7%.

Same assay, conditions: ASO, MM.1R, 0.222 µM

Going from “CTATAGTGTTCCAGGA (sugars kkdddddddddkdkdk, PS)” to “AGTTGTAAATGAGTCG (sugars kkkddddddddkekek, PS)”, the target mRNA inhibition rises from 23% to 46%.

In the case of CGCAAGTCTACAGCCC (sugars k3 d10 k3, PS), the target mRNA inhibition is reported as -9%.

Same assay, conditions: ASO, MM.1R, 0.25 µM

Compared with CGCATTGCTAGATTCT (sugars k3 d10 k3, PS), CGCAAGTCTACAGCCC (sugars k3 d10 k3, PS) is lower in target mRNA inhibition: 4% for the first, 1% for the second.

Same assay, conditions: ASO, MM.1R, 0.666 µM

First: CTATAGTGTTCCAGGA (sugars kkdddddddddkdkdk, PS)
Second: AGTTGTAAATGAGTCG (sugars kkkddddddddkekek, PS)
The target mRNA inhibition of the first is lower: 42% for the first, 49% for the second.

In the case of CGCAAGTCTACAGCCC (sugars k3 d10 k3, PS), the target mRNA inhibition is reported as -9%.

Same assay, conditions: ASO, MM.1R, 1 µM

First: GGCGGACACGCCCGAC (sugars k3 d10 k3, PS)
Second: GGACAATGGAGATACT (sugars k3 d10 k3, PS)
The target mRNA inhibition of the first is higher: 7% for the first, 3% for the second.

Compared with CAGCATGAGCTCGGTC (sugars k3 d10 k3, PS), AGCCCTTGCTGCAAAT (sugars k3 d10 k3, PS) is lower in target mRNA inhibition: 22% for the first, -11% for the second.

Going from AGAGAGTCCGACGCAC (sugars k3 d10 k3, PS) to GCCACCGACTCTTTTT (sugars k3 d10 k3, PS), the target mRNA inhibition rises from -18% to -5%.

First: CCACACAAGTCTTAGG (sugars k3 d10 k3, PS)
Second: TGGTTGGCTGGTCTTT (sugars kdddddddddkekeke, PS)
The target mRNA inhibition of the first is lower: 15% for the first, 31% for the second.

Compared with “GAAGTTTACACTGGAT (sugars e1 k2 d9 k2 e2, PS)”, TTTAGTATCACCTCTA (sugars k3 d10 k3, PS) is lower in target mRNA inhibition: 48% for the first, 30% for the second.

“ATGTGATAGCTGAGCT (sugars kkddddddddddkeke, PS)” and “ACCTCAGTTTGTGAAG (sugars k2 d9 e3 k2, PS)” are the same in target mRNA inhibition: 4% for the first, 4% for the second.

First: ACCTCAGTTTGTGAAG (sugars kkdddddddddekeke, PS)
Second: CAGTACAGTCCACTCC (sugars k3 d10 k3, PS)
The target mRNA inhibition of the first is higher: 13% for the first, 5% for the second.

Going from “CTGCTTGAGGTTTTCC (sugars kkkddddddddkekek, PS)” to “ACTTTTAGAGAGGAGA (sugars kkdddddddddekeke, PS)”, the target mRNA inhibition rises from 26% to 52%.

Compared with “CTATAGTGTTCCAGGA (sugars kdddddddddkekeke, PS)”, “GTGATAGCTGAGCTGA (sugars kkdddddddddkdkdk, PS)” is higher in target mRNA inhibition: 12% for the first, 34% for the second.

First: TTATATACTGGTTGGT (sugars kkdddddddddkdkdk, PS)
Second: TCAGTTTGTGAAGCAT (sugars kkddddddddddkeke, PS)
The target mRNA inhibition of the first is lower: 18% for the first, 33% for the second.

Going from “ACAGTGACTTGCATCC (sugars kkdddddddddkekek, PS)” to AACTAGCAGGGCACGC (sugars k3 d10 k3, PS), the target mRNA inhibition falls from 32% to 2%.

First: CCAAATTCCCGGAGGA (sugars k3 d10 k3, PS)
Second: AAGCTTGATAAAGGCT (sugars kkdddddddddkekek, PS)
The target mRNA inhibition of the first is lower: -25% for the first, -19% for the second.

Going from “CTATAGTGTTCCAGGA (sugars kkdddddddddkdkdk, PS)” to “CTTGATAAAGGCTGAA (sugars kkdddddddddkekek, PS)”, the target mRNA inhibition falls from 49% to 12%.

Going from “AGTTGTAAATGAGTCG (sugars kkkddddddddkekek, PS)” to “ATGTGATAGCTGAGCT (sugars kkdddddddddkekek, PS)”, the target mRNA inhibition falls from 61% to 24%.

Going from “TGGTTGGCTGGTCTTT (sugars kkdddddddddkekek, PS)” to GCACAGGCGCGGACGC (sugars k3 d10 k3, PS), the target mRNA inhibition falls from 44% to -6%.

Going from CGAAAAGACTGGAGTG (sugars k3 d10 k3, PS) to GCGACTGCTGAAAACC (sugars k3 d10 k3, PS), the target mRNA inhibition falls from 26% to -4%.

First: TGTGATAGCTGAGCTG (sugars kkdddddddddkdkdk, PS)
Second: CGCAAGTCTACAGCCC (sugars k3 d10 k3, PS)
The target mRNA inhibition of the first is higher: 47% for the first, 6% for the second.

For “AATGTGTATTACTCTT (sugars kkdddddddddkdkdk, PS)”, the target mRNA inhibition was 10% and 15%.
With CGCATTGCTAGATTCT (sugars k3 d10 k3, PS) the target mRNA inhibition was 37% and 27%.
In the case of “AGTGTCTAAAGTCCCA (sugars kkdddddddddkekek, PS)”, the target mRNA inhibition is reported as 26% and 9%.
With “TGTGCTTGCCAAGCCT (sugars kkdddddddddkdkdk, PS)” the target mRNA inhibition was 23% and 21%.
GATCTCCATGGTGCAG (sugars k3 d10 k3, PS) was tested, and the target mRNA inhibition was 22% and 12%.
“ATGTTAGCCAATTCCT (sugars kkddddddddddkeke, PS)” was tested, and the target mRNA inhibition was 20% and 15%.

Same assay, conditions: ASO, MM.1R, 2 µM

First: CTATAGTGTTCCAGGA (sugars kkdddddddddkdkdk, PS)
Second: AGTTGTAAATGAGTCG (sugars kkkddddddddkekek, PS)
The target mRNA inhibition of the first is lower: 68% for the first, 73% for the second.

With CGCAAGTCTACAGCCC (sugars k3 d10 k3, PS) the target mRNA inhibition was 8%.

Same assay, conditions: ASO, MM.1R, 4 µM

Compared with CGCATTGCTAGATTCT (sugars k3 d10 k3, PS), CGCAAGTCTACAGCCC (sugars k3 d10 k3, PS) is lower in target mRNA inhibition: 55% for the first, 12% for the second.

Same assay, conditions: ASO, SK-MEL-28, 4 µM

Compared with GGCTTTGTGTTTAAGT (sugars k3 d10 k3, PS), CGGAAGAAGGCACCTT (sugars k3 d10 k3, PS) is lower in target mRNA inhibition: 23% for the first, -12% for the second.

First: GTGACTGGAGAGCAAT (sugars k3 d10 k3, PS)
Second: GTAACAATACTGTAAG (sugars k3 d10 k3, PS)
The target mRNA inhibition of the first is higher: 74% for the first, 55% for the second.

Going from CATCACTTGGTCAATT (sugars k3 d10 k3, PS) to GATAAGGCACTACTTC (sugars k3 d10 k3, PS), the target mRNA inhibition rises from 29% to 47%.

First: GACAGAAGATCTCTAC (sugars k3 d10 k3, PS)
Second: GATTTCTAGGTAATCT (sugars k3 d10 k3, PS)
The target mRNA inhibition of the first is lower: 17% for the first, 31% for the second.

Compared with CGCTACAGCTTCTGCA (sugars k3 d10 k3, PS), ACCTGGCAACCATTTT (sugars k4 d8 k4, PS) is lower in target mRNA inhibition: 20% for the first, 19% for the second.

Compared with AATTGGCACGAGGAAG (sugars k3 d10 k3, PS), CTTTGAAGTGCTGTGT (sugars k3 d10 k3, PS) is lower in target mRNA inhibition: 28% for the first, 16% for the second.

Going from CGACAACTTTCCTGAA (sugars k3 d10 k3, PS) to AAAACTACTATTGTGG (sugars k3 d10 k3, PS), the target mRNA inhibition falls from 21% to 14%.

Compared with CACGAAGATTCAAAAG (sugars k3 d10 k3, PS), ATAAGATCCCACGAAG (sugars k3 d10 k3, PS) is lower in target mRNA inhibition: 10% for the first, -42% for the second.

Going from TTTATAGTAGGTAAGA (sugars k3 d10 k3, PS) to TGACAAGAACTGCTGT (sugars k3 d10 k3, PS), the target mRNA inhibition rises from 6% to 18%.

First: AAGCATCCTTTCCTAC (sugars k3 d10 k3, PS)
Second: TACTTGGACAGAAGGG (sugars k3 d10 k3, PS)
The target mRNA inhibition of the first is lower: 35% for the first, 62% for the second.

Compared with AATGAAGATCCACTAG (sugars k3 d10 k3, PS), GATACAAAACGGACTG (sugars k3 d10 k3, PS) is lower in target mRNA inhibition: 61% for the first, 44% for the second.

First: TAAACTTGGCTGTGGG (sugars k3 d10 k3, PS)
Second: ACGCAGCCTCTAAGAA (sugars k3 d10 k3, PS)
The target mRNA inhibition of the first is higher: 27% for the first, 25% for the second.

Going from GGTAAAGGCACATTCC (sugars k3 d10 k3, PS) to AATCAGATGATGTCTA (sugars k3 d10 k3, PS), the target mRNA inhibition falls from 47% to -3%.

First: ACCAACGACAGCATAG (sugars k3 d10 k3, PS)
Second: AGTGCAGGAGAGGCTG (sugars k3 d10 k3, PS)
The target mRNA inhibition of the first is higher: 67% for the first, 36% for the second.

Going from TAACGGTGTTTCAGAA (sugars k3 d10 k3, PS) to AACCATTACTTAGACA (sugars k3 d10 k3, PS), the target mRNA inhibition rises from 26% to 45%.

Compared with GATGACTCCATGAGGT (sugars k3 d10 k3, PS), TTATAGTAGGTAAGAT (sugars k3 d10 k3, PS) is lower in target mRNA inhibition: 67% for the first, 2% for the second.

First: CTCTACTGGAGTCAAG (sugars k3 d10 k3, PS)
Second: CCTGTAGTATGAGAAA (sugars k3 d10 k3, PS)
The target mRNA inhibition of the first is lower: 25% for the first, 57% for the second.

Going from AATGAGTCGGTCACTT (sugars k3 d10 k3, PS) to GCCGAACTCTCCGCCT (sugars k3 d10 k3, PS), the target mRNA inhibition rises from 46% to 51%.

First: GGGAATTTCCATTGGA (sugars k3 d10 k3, PS)
Second: CCATTTAATCTGTCTA (sugars k3 d10 k3, PS)
The target mRNA inhibition of the first is higher: 44% for the first, 28% for the second.

Going from TGGCAGTCTACAGAAC (sugars k3 d10 k3, PS) to ATCGAGCGGTGAAACT (sugars k3 d10 k3, PS), the target mRNA inhibition rises from -22% to 29%.

First: GGAGAGCGGAGGCGGG (sugars k3 d10 k3, PS)
Second: TGAGAGACGAAAACAG (sugars k3 d10 k3, PS)
The target mRNA inhibition of the first is higher: 21% for the first, -9% for the second.

First: CTAATCCACAATCAGC (sugars k3 d10 k3, PS)
Second: GCTGTGTGTCAAAGAG (sugars k3 d10 k3, PS)
The target mRNA inhibition of the first is higher: 45% for the first, 6% for the second.

Compared with TCTTTGAAGTGCTGTG (sugars k3 d10 k3, PS), TGTGTCAAAGAGCTTG (sugars k4 d8 k4, PS) is lower in target mRNA inhibition: 57% for the first, 26% for the second.

Compared with GCACAGCCGTCCGCCT (sugars k3 d10 k3, PS), GATTATATACTGGTTG (sugars k3 d10 k3, PS) is higher in target mRNA inhibition: 16% for the first, 59% for the second.

Going from GGGCTTCCTAGGTTTC (sugars k3 d10 k3, PS) to GATACAGCAGGCACTT (sugars k3 d10 k3, PS), the target mRNA inhibition rises from 39% to 63%.

ATTTTCACAAGCTGGG (sugars k3 d10 k3, PS) and CTAGATAGCATTCTTA (sugars k3 d10 k3, PS) are the same in target mRNA inhibition: 39% for the first, 39% for the second.

First: CGCTCAACCAGTTCCT (sugars k3 d10 k3, PS)
Second: GTATTAATATTCTGAC (sugars k3 d10 k3, PS)
The target mRNA inhibition of the first is lower: 28% for the first, 63% for the second.

First: AGGTAAATCTTCACTG (sugars k3 d10 k3, PS)
Second: GAAATATACCAGCTCA (sugars k3 d10 k3, PS)
The target mRNA inhibition of the first is lower: 54% for the first, 61% for the second.

Going from TCCCAGAGTTGTTCCA (sugars k3 d10 k3, PS) to AAGAGGCGACTGCTGA (sugars k3 d10 k3, PS), the target mRNA inhibition rises from 26% to 35%.

First: ACGACTTAAGCTAAAC (sugars k3 d10 k3, PS)
Second: CGCAAGTCTACAGCCC (sugars k3 d10 k3, PS)
The target mRNA inhibition of the first is lower: 58% for the first, 59% for the second.

First: CCATGGGAGATCCGGC (sugars k3 d10 k3, PS)
Second: GCAATGAACGGAAGTT (sugars k3 d10 k3, PS)
The target mRNA inhibition of the first is higher: 54% for the first, 45% for the second.

CTTGTCTCGCCGCAAT (sugars k3 d10 k3, PS) was tested, and the target mRNA inhibition was 65% and 47%.
